Source: patent US20230372498A1, “PLK1 SELECTIVE DEGRADATION INDUCING COMPOUND” (UPPTHERA, priority 2020, published 2023)

Target: T1, PLK1 (Homo sapiens, UniProt P53350)
T1 construct: endogenous in cells; host or cells: HeLa
Assay: PLK1 protein degradation in HeLa cells, Western blotting (PLK1/GAPDH ratio)
Format: cell-based
Settings: 6 hours compound incubation; for DC50: measured only if the grade of Dmax is A or B; for Dmax: thymidine block and release, 10 points three-fold from 3 μM, PLK1 to GAPDH ratio, read-out: Dmax
In short: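 PLK1 level measured by Western blot as PLK1/GAPDH in HeLa lysates (15 μg protein per lane). Cells were blocked with 2 mM thymidine 24 h, released 4 h, and exposed 6 h to compound, 10 concentrations, 3-fold steps, top 3 μM.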

T1 sequence (P53350 whole entry): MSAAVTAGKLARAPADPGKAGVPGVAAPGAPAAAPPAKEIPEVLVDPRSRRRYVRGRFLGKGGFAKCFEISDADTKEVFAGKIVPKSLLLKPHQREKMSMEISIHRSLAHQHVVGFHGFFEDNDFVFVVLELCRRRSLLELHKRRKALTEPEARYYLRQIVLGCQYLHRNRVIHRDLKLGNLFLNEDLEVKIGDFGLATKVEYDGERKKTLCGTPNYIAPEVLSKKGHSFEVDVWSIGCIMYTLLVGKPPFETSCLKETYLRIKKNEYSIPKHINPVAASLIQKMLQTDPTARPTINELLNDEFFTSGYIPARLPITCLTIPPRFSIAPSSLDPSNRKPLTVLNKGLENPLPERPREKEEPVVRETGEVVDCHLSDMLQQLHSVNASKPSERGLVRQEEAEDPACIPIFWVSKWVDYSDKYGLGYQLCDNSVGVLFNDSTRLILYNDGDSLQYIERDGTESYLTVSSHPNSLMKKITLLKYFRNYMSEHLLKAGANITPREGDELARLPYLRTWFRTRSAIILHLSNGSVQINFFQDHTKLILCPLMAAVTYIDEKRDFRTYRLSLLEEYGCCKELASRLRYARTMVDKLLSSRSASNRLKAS

SMILES: COc1cc(C(=O)NC2CCN(C(=O)N3CCN(c4ccc5c(c4)C(=O)N(C4CCC(=O)NC4=O)C5=O)CC3)CC2)c(F)cc1Nc1ncc2c(n1)N(C1CCCC1)CC(F)(F)C(=O)N2C (centres unmarked) [Compound 72, 4-((9-cyclopentyl-7,7-difluoro-5-methyl-6-oxo-6,7,8,9-tetrahydro-5H-pyrimido[4,5-b][1,4]diazepin-2-yl)amino)-N-(1-(4-(2-(2,6-dioxopiperidin-3-yl)-1,3-dioxoisoindolin-5-yl)piperazine-1-carbonyl)piperidin-4-yl)-2-fluoro-5-methoxybenzamide]
- DC50: ≤ 500 nM
- Dmax: 60 to 80%

SMILES: COc1cc(C(=O)NC2CCN(CCOCCOCCOCCOc3cc(-c4scnc4C)ccc3CNC(=O)[C@@H]3C[C@@H](O)CN3C(=O)[C@@H](NC(=O)C3(F)CC3)C(C)(C)C)CC2)c(F)cc1Nc1ncc2c(n1)N(C1CCCC1)CC(F)(F)C(=O)N2C [Example 87, (2S,4R)—N-(2-(2-(2-(2-(2-(4-(4-((9-cyclopentyl-7,7-difluoro-5-methyl-6-oxo-6,7,8,9-tetrahydro-5H-pyrimido[4,5-b][1,4]diazepin-2-yl)amino)-2-fluoro-5-methoxybenzamido)piperidin-1-yl)ethoxy)ethoxy)ethoxy)ethoxy)-4-(4-methylthiazol-5-yl)benzyl)-1-((S)-2-(1-fluorocyclopropane-1-carboxamido)-3,3-dimethylbutanoyl)-4-hydroxypyrrolidine-2-carboxamide]
- Dmax: < 60%

SMILES: COc1cc(C(=O)NC2CCN(CCCCCCCC(=O)Nc3cccc4c3C(=O)N(C3CCC(=O)NC3=O)C4=O)CC2)c(F)cc1Nc1ncc2c(n1)N(C1CCCC1)CC(F)(F)C(=O)N2C (centres unmarked) [Compound 38, 4-((9-cyclopentyl-7,7-difluoro-5-methyl-6-oxo-6,7,8,9-tetrahydro-5H-pyrimido[4,5-b][1,4]diazepin-2-yl)amino)-N-(1-(8-((2-(2,6-dioxopiperidin-3-yl)-1,3-dioxoisoindolin-4-yl)amino)-8-oxooctyl)piperidin-4-yl)-2-fluoro-5-methoxybenzamide]
- DC50: ≤ 500 nM
- Dmax: 60 to 80%

SMILES: COc1cc(C(=O)NC2CCN(CCCn3cnc(CNc4cccc5c4C(=O)N(C4CCC(=O)NC4=O)C5=O)c3)CC2)c(F)cc1Nc1ncc2c(n1)N(C1CCCC1)CC(F)(F)C(=O)N2C (centres unmarked) [Compound 43]
- DC50: ≤ 50 nM
- Dmax: ≥ 80%

SMILES: COc1cc(C(=O)NC2CCN(CCCCCNC(=O)COc3cccc4c3C(=O)N(C3CCC(=O)NC3=O)C4=O)CC2)c(F)cc1Nc1ncc2c(n1)N(C1CCCC1)CC(F)(F)C(=O)N2C (centres unmarked) [Compound 59, 4-((9-cyclopentyl-7,7-difluoro-5-methyl-6-oxo-6,7,8,9-tetrahydro-5H-pyrimido[4,5-b][1,4]diazepin-2-yl)amino)-N-(1-(5-(2-((2-(2,6-dioxopiperidin-3-yl)-1,3-dioxoisoindolin-4-yl)oxy)acetamido)pentyl)piperidin-4-yl)-2-fluoro-5-methoxybenzamide]
- Dmax: < 60%

SMILES: COc1cc(C(=O)NC2CCN(Cc3cncc(CNC(=O)COc4cccc5c4C(=O)N(C4CCC(=O)NC4=O)C5=O)c3)CC2)c(F)cc1Nc1ncc2c(n1)N(C1CCCC1)CC(F)(F)C(=O)N2C (centres unmarked) [Compound 62, 4-((9-cyclopentyl-7,7-difluoro-5-methyl-6-oxo-6,7,8,9-tetrahydro-5H-pyrimido[4,5-b][1,4]diazepin-2-yl)amino)-N-(1-((5-((2-((2-(2,6-dioxopiperidin-3-yl)-1,3-dioxoisoindolin-4-yl)oxy)acetamido)methyl)pyridin-3-yl)methyl)piperidin-4-yl)-2-fluoro-5-methoxybenzamide]
- DC50: ≤ 50 nM
- Dmax: 60 to 80%

SMILES: COc1cc(C(=O)NC2CCN(CCOCCOCCNc3ccc4c(c3)C(=O)N(C3CCC(=O)NC3=O)C4=O)CC2)c(F)cc1Nc1ncc2c(n1)N(C1CCCC1)CC(F)(F)C(=O)N2C (centres unmarked) [Compound 50, 4-((9-cyclopentyl-7,7-difluoro-5-methyl-6-oxo-6,7,8,9-tetrahydro-5H-pyrimido[4,5-b][1,4]diazepin-2-yl)amino)-N-(1-(2-(2-(2-((2-(2,6-dioxopiperidin-3-yl)-1,3-dioxoisoindolin-5-yl)amino)ethoxy)ethoxy)ethyl)piperidin-4-yl)-2-fluoro-5-methoxybenzamide]
- DC50: ≤ 50 nM
- Dmax: ≥ 80%

SMILES: CN1C(=O)C(F)(F)CN(C2CCCC2)c2nc(Nc3ccc(C(=O)NCCCOCCCOCCNc4cccc5c4C(=O)N(C4CCC(=O)NC4=O)C5=O)cc3)ncc21 (centres unmarked) [Example 170, 4-((9-cyclopentyl-7,7-difluoro-5-methyl-6-oxo-6,7,8,9-tetrahydro-5H-pyrimido[4,5-b][1,4]diazepin-2-yl)amino)-N-(3-(3-(2-((2-(2,6-dioxopiperidin-3-yl)-1,3-dioxoisoindolin-4-yl)amino)ethoxy)propoxy)propyl)benzamide]
- Dmax: ≥ 80%

SMILES: COc1cc(C(=O)NC2CCN(CCOCCCOCCOCCOCCNc3cccc4c3C(=O)N(C3CCC(=O)NC3=O)C4=O)CC2)c(F)cc1Nc1ncc2c(n1)N(C1CCCC1)CC(F)(F)C(=O)N2C (centres unmarked) [Compound 25, 4-((9-cyclopentyl-7,7-difluoro-5-methyl-6-oxo-6,7,8,9-tetrahydro-5H-pyrimido[4,5-b][1,4]diazepin-2-yl)amino)-N-(1-(1-((2-(2,6-dioxopiperidin-3-yl)-1,3-dioxoisoindolin-4-yl)amino)-3,6,9,13-tetraoxapentadecan-15-yl)piperidin-4-yl)-2-fluoro-5-methoxybenzamide]
- DC50: ≤ 50 nM
- Dmax: ≥ 80%

SMILES: COc1cc(C(=O)NC2CC3(C2)CN(C(=O)CCCNc2cccc4c2C(=O)N(C2CCC(=O)NC2=O)C4=O)C3)c(F)cc1Nc1ncc2c(n1)N(C1CCCC1)CC(F)(F)C(=O)N2C (centres unmarked) [Compound 160, 4-((9-cyclopentyl-7,7-difluoro-5-methyl-6-oxo-6,7,8,9-tetrahydro-5H-pyrimido[4,5-b][1,4]diazepin-2-yl)amino)-N-(2-(4-((2-(2,6-dioxopiperidin-3-yl)-1,3-dioxoisoindolin-4-yl)amino)butanoyl)-2-azaspiro[3.3]heptan-6-yl)-2-fluoro-5-methoxybenzamide]
- DC50: ≤ 50 nM
- Dmax: ≥ 80%

SMILES: COc1cc(C(=O)NC2CCN(CCCCCNc3cccc4c3C(=O)N(C3CCC(=O)NC3=O)C4=O)C2)c(F)cc1Nc1ncc2c(n1)N(C1CCCC1)CC(F)(F)C(=O)N2C (centres unmarked) [Example 109, 4-((9-cyclopentyl-7,7-difluoro-5-methyl-6-oxo-6,7,8,9-tetrahydro-5H-pyrimido[4,5-b][1,4]diazepin-2-yl)amino)-N-(1-(5-((2-(2,6-dioxopiperidin-3-yl)-1,3-dioxoisoindolin-4-yl)amino)pentyl)pyrrolidin-3-yl)-2-fluoro-5-methoxybenzamide]
- DC50: ≤ 500 nM
- Dmax: 60 to 80%

SMILES: COc1cc(C(=O)NC2CCN(CCOCCOCCNc3cccc4c3C(=O)N(C3CCC(=O)N(C)C3=O)C4=O)CC2)c(F)cc1Nc1ncc2c(n1)N(C1CCCC1)CC(F)(F)C(=O)N2C (centres unmarked) [Compound 6, 4-((9-cyclopentyl-7,7-difluoro-5-methyl-6-oxo-6,7,8,9-tetrahydro-5H-pyrimido[4,5-b][1,4]diazepin-2-yl)amino)-2-fluoro-5-methoxy-N-(1-(2-(2-(2-((2-(1-methyl-2,6-dioxopiperidin-3-yl)-1,3-dioxoisoindolin-4-yl)amino)ethoxy)ethoxy)ethyl)piperidin-4-yl)benzamide]
- Dmax: < 60%
